Where “and” joins values, the source holds several entries; their conditions need not be identical. Equal entries are not always repeated. Toxic doses and inconclusive results are not listed.
System: B6C3F1 mice, Lewis lung carcinoma iv, survival T/C
Assay: NCI In Vivo Anticancer Drug Screen. Data for tumor model Lewis Lung Carcinoma (intravenous) in B6C3F1 mice
Conditions: endpoint: median survival time, higher = longer survival
Summary of the method: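 T/C ratio derived from survival of compound-treated versus vehicle-treated mice bearing transplantable tumors.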

[1] = dose: 12.5 mg/kg/injection, schedule: Q01DX009 (ip), vehicle: saline
[2] = dose: 25.0 mg/kg/injection, schedule: Q01DX009 (ip), vehicle: saline
[3] = dose: 50.0 mg/kg/injection, schedule: Q01DX009 (ip), vehicle: saline
[4] = dose: 100.0 mg/kg/injection, schedule: Q01DX009 (ip), vehicle: saline
[5] = dose: 6.25 mg/kg/injection, schedule: Q01DX009 (ip), vehicle: saline with Tween-80
[6] = dose: 12.5 mg/kg/injection, schedule: Q01DX009 (ip), vehicle: saline with Tween-80
[7] = dose: 25.0 mg/kg/injection, schedule: Q01DX009 (ip), vehicle: saline with Tween-80
[8] = dose: 50.0 mg/kg/injection, schedule: Q01DX009 (ip), vehicle: saline with Tween-80
[9] = dose: 100.0 mg/kg/injection, schedule: Q01DX009 (ip), vehicle: saline with Tween-80
[10] = dose: 200.0 mg/kg/injection, schedule: Q01DX009 (ip), vehicle: saline with Tween-80
[11] = dose: 0.37 mg/kg/injection, schedule: Q01DX009 (ip), vehicle: saline with Tween-80
[12] = dose: 0.75 mg/kg/injection, schedule: Q01DX009 (ip), vehicle: saline with Tween-80
[13] = dose: 1.5 mg/kg/injection, schedule: Q01DX009 (ip), vehicle: saline with Tween-80
[14] = dose: 3.0 mg/kg/injection, schedule: Q01DX009 (ip), vehicle: saline with Tween-80
[15] = dose: 25.0 mg/kg/injection, schedule: Q01DX009 (ip), vehicle: Klucel (hydroxypropylcellulose) (HPC)
[16] = dose: 50.0 mg/kg/injection, schedule: Q01DX009 (ip), vehicle: Klucel (hydroxypropylcellulose) (HPC)
[17] = dose: 100.0 mg/kg/injection, schedule: Q01DX009 (ip), vehicle: Klucel (hydroxypropylcellulose) (HPC)
[18] = dose: 400.0 mg/kg/injection, schedule: Q01DX009 (ip), vehicle: saline with Tween-80
[19] = dose: 200.0 mg/kg/injection, schedule: Q01DX009 (ip), vehicle: Klucel (hydroxypropylcellulose) (HPC)
[20] = dose: 0.5 mg/kg/injection, schedule: Q01DX009 (ip), vehicle: saline
[21] = dose: 3.12 mg/kg/injection, schedule: Q01DX009 (ip), vehicle: saline

## C=CCOCC1CO1 (stereo not drawn)
[1]
  T/C: 105 % of control
[2]
  T/C: 100 % of control
[3]
  T/C: 99 % of control
[4]
  T/C: 104 % of control
dose: 200.0 mg/kg/injection, schedule: Q01DX009 (ip), vehicle: saline
  T/C: 115 % of control

## CC1(C)CC1(Br)Br
[5]
  T/C: 99 % of control
[6]
  T/C: 96 % of control
[7]
  T/C: 99 % of control
[8]
  T/C: 100 % of control
[9]
  T/C: 115 % of control
[10]
  T/C: 100 % of control

## O=NN(CCF)C(=O)NC1C(O)CCCC1O (stereo not drawn)
dose: 2.5 mg/kg/injection, schedule: Q01DX009 (ip), vehicle: saline
  T/C: 116 % of control
dose: 10.0 mg/kg/injection, schedule: Q01DX009 (ip), vehicle: saline
  T/C: 312 % of control
dose: 20.0 mg/kg/injection, schedule: Q01DX009 (ip), vehicle: saline
  T/C: 104 % of control

## Cc1cc2c(C(C)C)c(O)c(O)c(C=O)c2c(O)c1-c1c(C)cc2c(C(C)C)c(O)c(O)c(C=O)c2c1O
[11]
  T/C: 101 % of control
[12]
  T/C: 101 % of control
[13]
  T/C: 105 % of control
[14]
  T/C: 106 % of control

## CO[C@@H]1[C@H](O)CC[C@]2(CO2)[C@H]1[C@@]1(C)O[C@@H]1CC=C(C)C
dose: 1.56 mg/kg/injection, schedule: Q01DX009 (ip), vehicle: saline with Tween-80
  T/C: 95 % of control and 101 % of control
dose: 3.12 mg/kg/injection, schedule: Q01DX009 (ip), vehicle: saline with Tween-80
  T/C: 95 % of control and 103 % of control
[5]
  T/C: 93 % of control and 101 % of control
[6]
  T/C: 101 % of control
[7]
  T/C: 106 % of control and 115 % of control
[8]
  T/C: 103 % of control and 107 % of control

## Cc1nnc2ncccn12
[1]
  T/C: 104 % of control
[2]
  T/C: 110 % of control
[3]
  T/C: 101 % of control
[4]
  T/C: 96 % of control
dose: 400.0 mg/kg/injection, schedule: Q01DX009 (ip), vehicle: saline
  T/C: 103 % of control

## CC(C)CC(=O)NC(C(=O)NC(C(=O)NC(CC(C)C)C(O)CC(=O)NC(C)C(=O)NC(CC(C)C)C(O)CC(=O)O)C(C)C)C(C)C (stereo not drawn)
dose: 3.12 mg/kg/injection, schedule: Q01DX009 (ip), vehicle: Klucel (hydroxypropylcellulose) (HPC)
  T/C: 95 % of control
dose: 6.25 mg/kg/injection, schedule: Q01DX009 (ip), vehicle: Klucel (hydroxypropylcellulose) (HPC)
  T/C: 99 % of control
dose: 12.5 mg/kg/injection, schedule: Q01DX009 (ip), vehicle: Klucel (hydroxypropylcellulose) (HPC)
  T/C: 95 % of control
[15]
  T/C: 97 % of control
[16]
  T/C: 97 % of control
[17]
  T/C: 95 % of control

## CCCCCCCCCCCCCCC/C([O-])=N/[N+](C)(C)CC(C)O (stereo not drawn)
dose: 25.0 mg/kg/injection, schedule: Q01DX001 (ip), vehicle: saline
  T/C: 91 % of control
dose: 50.0 mg/kg/injection, schedule: Q01DX001 (ip), vehicle: saline
  T/C: 88 % of control
dose: 100.0 mg/kg/injection, schedule: Q01DX001 (ip), vehicle: saline
  T/C: 87 % of control
dose: 200.0 mg/kg/injection, schedule: Q01DX001 (ip), vehicle: saline
  T/C: 95 % of control

## CN(C=O)C(C(=O)Nc1cccc2c(OC(=O)C(N(C)C=O)(N(C)C=O)N(C)C=O)c(N=Nc3ccc(S(=O)(=O)Nc4nccs4)cc3)cc(N=Nc3ccc(S(=O)(=O)Nc4nccs4)cc3)c12)(N(C)C=O)N(C)C=O (tested in a mixture with another compound)
[7]
  T/C: 103 % of control
[8]
  T/C: 98 % of control
[9]
  T/C: 99 % of control and 104 % of control
[10]
  T/C: 94 % of control and 98 % of control
[18]
  T/C: 103 % of control and 110 % of control
dose: 800.0 mg/kg/injection, schedule: Q01DX009 (ip), vehicle: saline with Tween-80
  T/C: 107 % of control

## O=C(O)[C@H](Cc1ccccc1)N1C(=O)c2ccccc2C1=O
dose: 3.12 mg/kg/injection, schedule: Q01DX009 (ip), vehicle: DMSO
  T/C: 102 % of control
dose: 6.25 mg/kg/injection, schedule: Q01DX009 (ip), vehicle: DMSO
  T/C: 105 % of control
dose: 12.5 mg/kg/injection, schedule: Q01DX009 (ip), vehicle: DMSO
  T/C: 105 % of control
dose: 25.0 mg/kg/injection, schedule: Q01DX009 (ip), vehicle: DMSO
  T/C: 100 % of control
dose: 50.0 mg/kg/injection, schedule: Q01DX009 (ip), vehicle: DMSO
  T/C: 98 % of control

## COC(=O)Nc1cn2ccc(Sc3ccccc3)cc2n1
[16]
  T/C: 101 % of control
[17]
  T/C: 106 % of control
[19]
  T/C: 101 % of control

## N#CC(=C1SCS1)[N+](=O)[O-]
[11]
  T/C: 98 % of control
[12]
  T/C: 107 % of control
[13]
  T/C: 106 % of control
[14]
  T/C: 109 % of control
dose: 6.0 mg/kg/injection, schedule: Q01DX009 (ip), vehicle: saline with Tween-80
  T/C: 106 % of control
dose: 12.0 mg/kg/injection, schedule: Q01DX009 (ip), vehicle: saline with Tween-80
  T/C: 92 % of control

## C/C=C1\C[C@@H]2C(OC)Nc3cc(O)c(OC)cc3C(=O)N2C1 (stereo partly drawn)
dose: 0.03 mg/kg/injection, schedule: Q01DX009 (ip), vehicle: saline
  T/C: 100 % of control
dose: 0.03 mg/kg/injection, schedule: Q01DX009 (ip), vehicle: suspension in saline
  T/C: 92 % of control
dose: 0.06 mg/kg/injection, schedule: Q01DX009 (ip), vehicle: saline
  T/C: 110 % of control
dose: 0.06 mg/kg/injection, schedule: Q01DX009 (ip), vehicle: suspension in saline
  T/C: 96 % of control
dose: 0.12 mg/kg/injection, schedule: Q01DX009 (ip), vehicle: saline
  T/C: 101 % of control
dose: 0.12 mg/kg/injection, schedule: Q01DX009 (ip), vehicle: suspension in saline
  T/C: 97 % of control
dose: 0.25 mg/kg/injection, schedule: Q01DX009 (ip), vehicle: saline
  T/C: 108 % of control
dose: 0.25 mg/kg/injection, schedule: Q01DX009 (ip), vehicle: suspension in saline
  T/C: 104 % of control
[20]
  T/C: 104 % of control
dose: 0.5 mg/kg/injection, schedule: Q01DX009 (ip), vehicle: suspension in saline
  T/C: 105 % of control

## C(=N/NC1=NCCN1)/c1c2ccccc2c(/C=N\NC2=NCCN2)c2ccccc12
[21]
  T/C: 110 % of control
[1]
  T/C: 100 % of control
[2]
  T/C: 100 % of control

## Cc1c2cc[n+](CCN3CCCCC3)cc2c(C)c2c1[nH]c1ccc(O)cc12
dose: 1.56 mg/kg/injection, schedule: Q01DX009 (ip), vehicle: saline
  T/C: 94 % of control
[21]
  T/C: 116 % of control
dose: 6.25 mg/kg/injection, schedule: Q01DX009 (ip), vehicle: saline
  T/C: 106 % of control
[1]
  T/C: 103 % of control
[2]
  T/C: 104 % of control

## C#C[C@]1(O)CC[C@H]2[C@@H]3CCc4cc(O)ccc4[C@H]3CC[C@@]21C
[16]
  T/C: 118 % of control and 122 % of control
[17]
  T/C: 113 % of control and 114 % of control
dose: 400.0 mg/kg/injection, schedule: Q01DX009 (ip), vehicle: Klucel (hydroxypropylcellulose) (HPC)
  T/C: 107 % of control

## O=C(Nc1ccccc1)c1c(O)[nH]c(=S)[nH]c1=O
[6]
  T/C: 103 % of control
[7]
  T/C: 106 % of control
[8]
  T/C: 115 % of control

## COc1cc(C(=O)N/N=C/c2cccc([N+](=O)[O-])c2)cc(OC)c1OC
[7]
  T/C: 97 % of control
[8]
  T/C: 98 % of control
[9]
  T/C: 105 % of control
[10]
  T/C: 93 % of control
[18]
  T/C: 101 % of control

## CCCCCCCCCCCCCCCCP(=O)(OCCOCCCCCC)OCCOCCCCCC
dose: 6.25 mg/kg/injection, schedule: Q01DX009 (ip), vehicle: suspension in saline
  T/C: 100 % of control
dose: 12.5 mg/kg/injection, schedule: Q01DX009 (ip), vehicle: suspension in saline
  T/C: 100 % of control
dose: 25.0 mg/kg/injection, schedule: Q01DX009 (ip), vehicle: suspension in saline
  T/C: 107 % of control
dose: 50.0 mg/kg/injection, schedule: Q01DX009 (ip), vehicle: suspension in saline
  T/C: 102 % of control

## Nc1nc(=S)c2[nH]cnc2[nH]1
[20]
  T/C: 104 % of control
dose: 2.0 mg/kg/injection, schedule: Q01DX009 (ip), vehicle: saline
  T/C: 114 % of control

## Cc1c(-c2ccc(C3CCCCC3)cc2)nc2ccc(F)cc2c1C(=O)O
[15]
  T/C: 96 % of control
[16]
  T/C: 110 % of control
[17]
  T/C: 118 % of control
[19]
  T/C: 112 % of control

— PubChem BioAssay AID276 (DTP/NCI, 2004)
